Earlier results, collected in US20070244041A1, “Peptide Yy Analogues” (Reoscience A/S, priority 2004, published 2007).
No end group written: not given here.

Assays:
vagal motor neurons = details: applied onto vagal motor neurons

| Substance | selectivity for Y2 over Y1 receptors (Y2 over Y1 receptors) | vagal motor neurons activated (vagal motor neurons) | vagal motor neurons with inhibited firing rate (vagal motor neurons) |
| --- | --- | --- | --- |
| NPY3-36: truncated neuropeptide Y with high selectivity for Y2 over Y1 receptors | high selectivity |  |  |
| PYY13-36: truncated PYY, a Y2 selective agonist (SPEELNRYYASLRHYLNLVTRQRY; ends and bridges not checked; UniProt P10082 41-64, looked up, fragment) |  | approximately 5% | approximately 50% |
